Assay results reported in US10105365B2, “Solid antiviral dosage forms” (AbbVie Inc., priority 2014, dated 2018).

Assays:
[1] = Sink Conditions dissolution testing of Formulation C5-12; type: physicochemical; conditions: N = 6
Protocol: The release profiles of Formulation C5-12 of Example 1 were evaluated in a Sink Conditions dissolution study. The study was conducted in 900 mL of dissolution medium using a standard USP dissolution Apparatus 2 (paddle) operating at 100 RPM at 37±0.5° C. The dissolution medium was a 0.05 M sodium phosphate buffer pH 6.8 with 15 mM cTAB as a surfactant.

[2] = Human pharmacokinetic study, Example 4 Arm II (single dose, crossover); type: in vivo; conditions: for AUC(0-inf): read-out: AUC∞, geometric mean; for concentration at 24 h: read-out: C24, geometric mean
Protocol: Formulation C5-12 and a second formulation were tested in Arm II of the study. Adult male and female subjects (N=30 for combined Arm I and Arm II studies) in general good health were selected to participate in the study according to the selection criteria. Subjects meeting the selection criteria were randomly assigned to one of the Regimen sequences as shown below in Table 4-A.
Study drug was administered as provided below in Table 4-B.
Each study regimen was taken orally with approximately 240 mL of water approximately 30 minutes after the start of standardized breakfast. Study regimens were administered orally in the morning on Study Day 1 of each period. For Regimen A the evening dose of the Single Tablet was taken orally with approximately 240 mL of water approximately 30 minutes after the start of the evening snack. Serial blood samples for pharmacokinetic analysis were collected 72 hours after dosing in each period.
The data presented in Tables 4-C through 4-G are preliminary data and are subject to database lock and final data verification.

[3] = Human pharmacokinetic study, Example 5 Arm I (single dose, replicated crossover); type: in vivo; conditions: single dose, non-fasting; for AUC(0-inf) / Cmax: both sexes, human, in vivo, oral
Protocol: (§1) A Phase 1, non-fasting, open-label, two-arm, four-period, randomized, crossover study was conducted to compare and characterize the pharmacokinetics of (i) Triple Tablet when co-administered with Single Tablet, and (ii) Formulation C5-12 as discussed below. Part 1 was a single dose, two-treatment, randomized, four period, two sequence replicated crossover study with 88 subjects. Doses in the four periods were separated by at least 10 days. Part 2 was a multiple-dose, two-treatment, two period, randomized crossover study with 66 subjects. Dosing in each period was 14 days and doses in the two periods were separated by at least 10 days.
(§2) Adult male and female subjects in general good health were selected to participate in the study according to the selection criteria. Subjects meeting the selection criteria were randomly assigned to one of the sequences of Regimens A and B (four sequences for Arm I and two sequences for Arm II) as shown below in Table 5-A.
(§3) Study drug was administered as provided below in Table 5-B.
(§4) Each study regimen was taken orally with approximately 240 mL of water approximately 30 minutes after the start of standardized breakfast. Study regimens were administered orally in the morning on Study Day 1 of each period. Serial blood samples for pharmacokinetic analysis were collected 72 hours after dosing in each period.
Tables 5-C, 5-D, 5-E, and 5-F below report the Arm I pharmacokinetic data for Formulation C5-12 (separately reported for each of Compounds 1, 2, 3, and 4). Table 5-G presents the results of a relative bioavailability and 90% confidence interval analysis of the pharmacokinetic data for Formulation C5-12 relative to the reference regimen. The data presented in Tables 5-C through 5-G are preliminary data and are subject to database lock and final data verification by the statistician.

[4] = Human pharmacokinetic study, Example 5 Arm II (multiple dose, crossover); type: in vivo; conditions: for AUC: read-out: AUC24, geometric mean; for concentration at 24 h: read-out: C24, geometric mean
Protocol: as §1, §2, §3, §4

[5] = type: physicochemical
Description: Moreover, hot melt extrusion, a method commonly used to prepare amorphous solid dispersions, often involves the use of high temperature to assist the formation of a melt that is composed of all components of the final solid dispersion.
This allows the preparation of smaller solid dosage forms (e.g., tablets) comprising all three drug substances.

[6] = Human pharmacokinetic study, Example 4 Arm III (14-day multiple dose, steady state); type: in vivo; conditions: three Formulation C5-12 tablets daily for 14 days, non-fasting
[7] = Example 4 Arm II, single dose, non-fasting, Regimen E (C5-12): three Formulation C5-12 tablets in the morning, N = 13
[8] = both sexes, human, blood, oral, 3 Formulation C5-12 tablets, Example 4 Arm II, single dose, non-fasting, Regimen E (C5-12): three Formulation C5-12 tablets in the morning, N = 13
[9] = both sexes, human, blood, oral, Example 4 Arm II, single dose, non-fasting, Regimen A (reference regimen): two Triple Tablets + one Single Tablet morning, one Single Tablet evening, N = 13
[10] = Regimen A (C5-12): three film-coated Formulation C5-12 tablets, N = 172
[11] = Regimen B (reference regimen): two Triple Tablets + one Single Tablet morning, one Single Tablet evening, N = 171
[12] = Example 5 Arm II, multiple dose 14 days, non-fasting, Regimen B (reference regimen): two Triple Tablets + one Single Tablet morning, one Single Tablet evening, N = 63
[13] = both sexes, human, blood, oral, 3 film-coated Formulation C5-12 tablets daily, Example 5 Arm II, multiple dose 14 days, non-fasting, Regimen A (C5-12): three film-coated Formulation C5-12 tablets daily, N = 63
[14] = both sexes, human, blood, oral, Example 5 Arm II, multiple dose 14 days, non-fasting, Regimen B (reference regimen): two Triple Tablets + one Single Tablet morning, one Single Tablet evening, N = 63

CC(C)c1nc(CN(C)C(=O)N[C@H](C(=O)N[C@@H](Cc2ccccc2)C[C@H](O)[C@H](Cc2ccccc2)NC(=O)OCc2cncs2)C(C)C)cs1 [Compound 3, 1,3-thiazol-5-ylmethyl N-[(2S,3S,5S)-3-hydroxy-5-[(2S)-3-methyl-2-{[methyl({[2-(propan-2-yl)-1,3-thiazol-4-yl]methyl})carbamoyl]-amino}butanamido]-1,6-diphenylhexan-2-yl]carbamate, reference compound]
% Released ([1]; 1 hour, 900 mL 0.05 M sodium phosphate buffer pH 6.8, 15 mM cTAB, USP Apparatus 2, 100 RPM, 37 °C): 58%
% Released ([1]; 4 hours, pH 6.8 buffer, 15 mM cTAB): 99%
% Released ([1]; 6 hours, pH 6.8 buffer, 15 mM cTAB): 100%
% Released ([1]; 8 hours, pH 6.8 buffer, 15 mM cTAB): 103%
% Released ([1]; 12 hours, pH 6.8 buffer, 15 mM cTAB): 102%
% Released ([1]; 16 hours, pH 6.8 buffer, 15 mM cTAB): 100%
Cmax, geometric mean ([2]; Example 4 Arm II, single dose, non-fasting, Regimen A (reference regimen): two Triple Tablets + one Single Tablet morning, one Single Tablet evening, N = 13): 1170 ng/mL
AUCt, geometric mean [2, 7]: 8160 ng·h/mL
Cmax, geometric mean [2, 7]: 1160 ng/mL
t1/2 [2, 7]: 4.2 h
AUC(0-inf) [2, 8]: 8270 ng·h/mL
concentration at 24 h [2, 8]: 38.8 ng/mL
Tmax ([2]; both sexes, human, blood, oral, 3 Formulation C5-12 tablets, Example 4 Arm II, single dose, non-fasting, Regimen E (C5-12): three Formulation C5-12 tablets in the morning, N = 13, read-out: Tmax): 4.9 h
half-life [2, 9]: 4.9 h
concentration at 24 h [2, 9]: 37 ng/mL
AUC(0-t) ([2]; both sexes, human, in vivo, Example 4 Arm II, single dose, non-fasting, Regimen A (reference regimen): two Triple Tablets + one Single Tablet morning, one Single Tablet evening, N = 13, read-out: AUCt, geometric mean): 7710 ng·h/mL
AUC(0-inf) ([2]; both sexes, human, in vivo, Example 4 Arm II, single dose, non-fasting, Regimen A (reference regimen): two Triple Tablets + one Single Tablet morning, one Single Tablet evening, N = 13): 7900 ng·h/mL
C24, arithmetic mean, % CV ([2]; both, human, in vivo, 24 h): (46.3, 62) ng/mL
AUC(0-inf) ([3]; 3 film-coated Formulation C5-12 tablets, Regimen A (C5-12): three film-coated Formulation C5-12 tablets, N = 172, read-out: AUC∞, geometric mean): 8090 ng·h/mL
Cmax ([3]; 3 film-coated Formulation C5-12 tablets, Regimen A (C5-12): three film-coated Formulation C5-12 tablets, N = 172, read-out: Cmax, geometric mean): 1130 ng/mL
AUC(0-inf) ([3]; Regimen B (reference regimen): two Triple Tablets + one Single Tablet morning, one Single Tablet evening, N = 171, read-out: AUC∞, geometric mean): 8750 ng·h/mL
Cmax ([3]; Regimen B (reference regimen): two Triple Tablets + one Single Tablet morning, one Single Tablet evening, N = 171, read-out: Cmax, geometric mean): 1430 ng/mL
AUCt, geometric mean [3, 10]: 7450 ng·h/mL
Tmax, first value (geometric mean) [3, 10]: 4.0 h
t1/2 [3, 10]: 4.52 h
AUCt, geometric mean [3, 11]: 8610 ng·h/mL
t1/2 [3, 11]: 4.47 h
Cmax, arithmetic mean, % CV [4, 12]: (1800,44) ng/mL
Cmax, geometric mean [4, 12]: 1680 ng/mL
half-life [4, 13]: 4.6 h
AUC [4, 13]: 8670 ng·h/mL
concentration at 24 h [4, 13]: 36.2 ng/mL
Cmax ([4]; both sexes, human, blood, oral, 3 film-coated Formulation C5-12 tablets daily, Example 5 Arm II, multiple dose 14 days, non-fasting, Regimen A (C5-12): three film-coated Formulation C5-12 tablets daily, N = 63, read-out: Cmax, geometric mean): 1340 ng/mL
AUC [4, 14]: 9580 ng·h/mL
concentration at 24 h [4, 14]: 35.1 ng/mL
Cmax,ss lower than Cmax,ss for the reference regimen ([4]; both, human, in vivo, 14 days): 21%
Exposures (C24,ss and AUC24,ss) versus the reference regimen ([4]; in vivo): bioequivalent
Degradation in hot melt extrusion [5]: well within the acceptable levels
Temperature beyond which degradation can reach unacceptable levels [5]: > 140 °C
Tmax ([6]; human, in vivo, oral, 3 Formulation C5-12 tablets daily, Day 1, N = 14): 5.4 h
concentration at 24 h ([6]; human, in vivo, oral, 3 Formulation C5-12 tablets daily, Day 1, N = 14, read-out: C24, geometric mean): 34.7 ng/mL
Tmax ([6]; human, in vivo, oral, 3 Formulation C5-12 tablets daily, Day 14, N = 14): 4.7 h
AUC ([6]; human, in vivo, oral, 3 Formulation C5-12 tablets daily, Day 14, N = 14, read-out: AUC24, geometric mean): 10700 ng·h/mL
concentration at 24 h ([6]; human, in vivo, oral, 3 Formulation C5-12 tablets daily, Day 14, N = 14, read-out: C24, geometric mean): 40 ng/mL
Cmax ([6]; human, in vivo, oral, 3 Formulation C5-12 tablets daily, Day 14, N = 14, read-out: Cmax, geometric mean): 1430 ng/mL
AUC24, geometric mean ([6]; Day 1, N = 14): 7230 ng·h/mL
Cmax, geometric mean ([6]; Day 1, N = 14): 921 ng/mL
t1/2 ([6]; Day 14, N = 14): 4.0 h
β ([6]; Day 14, N = 14): 0.174 h⁻¹
